According to BindingDB's records for doi:10.1016/j.bmcl.2023.129387 (The University of Queensland, 2023):

Biological target: Metallo-beta-lactamase type 2 (Klebsiella pneumoniae, UniProt C7C422)
Experiment: Competitive inhibition of NDM-1 (unknown origin) using penicillin G as substrate by Michaelis-Menten equation based kinetic analysis

Metallo-beta-lactamase type 2, sequence (C7C422 whole entry): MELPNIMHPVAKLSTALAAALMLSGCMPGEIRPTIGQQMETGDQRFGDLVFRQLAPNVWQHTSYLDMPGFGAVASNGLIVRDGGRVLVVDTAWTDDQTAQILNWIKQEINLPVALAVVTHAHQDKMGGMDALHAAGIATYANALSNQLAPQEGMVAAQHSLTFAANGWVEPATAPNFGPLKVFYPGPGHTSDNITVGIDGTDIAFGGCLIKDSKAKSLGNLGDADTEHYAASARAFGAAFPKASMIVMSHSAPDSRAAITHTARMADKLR

| SMILES | Ki |
| --- | --- |
| N#Cc1c(-c2ccccc2)c(-c2ccccc2)n(Cc2ccccc2)c1NC(=O)c1ccccc1 | 9 µM |
| N#Cc1c(-c2ccccc2)c(-c2ccccc2)n(Cc2ccccc2)c1/N=C/c1ccccc1 | 3.2 µM |
| N#Cc1c(-c2ccccc2)c(-c2ccccc2)n(Cc2ccccc2)c1/N=C/c1cccs1 | 1.7 µM |
| N#Cc1c(-c2ccccc2)c(-c2ccccc2)n(Cc2ccccc2)c1/N=C/c1ccc(O)cc1 | 1.3 µM |
| COC(=O)c1ccc(/C=N/c2c(C#N)c(-c3ccccc3)c(-c3ccccc3)n2Cc2ccccc2)cc1 | 34 µM |
